From paper PMC4890880 (ACS infectious diseases, 2016)
pIC50: −log10 of the molar value. Like-named read-outs stand apart in the source and are kept apart here.

Tested on: HepG2-A16-CD81EGFP cells
Conditions: for pIC50: read-out: Tox_IC50, HepG2 cytotoxicity
[1] = sheet 2nd round, maximal inhibition in dose response

Row | SMILES | pIC50 (sheet 2nd round) | Tox_max_inhibition (%) [1] [%] | further results
1 | CCCC#Cc1ccc2c(c1)O[C@H](CN(C)Cc1ccccn1)[C@H](C)CN([C@@H](C)CO)S2(=O)=O [BRD-K48766892-001-01-4] |  |  | pIC50 (sheet "2nd round"): < 5.00; Tox_max_inhibition (%) (sheet "2nd round"): 7%
2 | O=C(Cc1ccccc1)N1CC(=O)N2[C@H](CO)[C@H](c3ccc(C#CCc4ccccc4)cc3)[C@H]2C1 [BRD-K27191881-001-01-3] | < 5.00 | 3.49 | 
3 | O=C(C[C@@H]1C[C@H]2c3cc(NC(=O)c4ccc5c(c4)OCO5)ccc3O[C@H]2[C@H](CO)O1)NCc1ccc(Oc2ccccc2)cc1 [BRD-K60334624-001-01-9] | < 5.00 | 4.54 | 
4 | C[C@H]1CN([C@@H](C)CO)C(=O)c2cccc(NC(=O)NC3CCCCC3)c2O[C@H]1CN(C)Cc1ccc(C(F)(F)F)cc1 [BRD-K56432748-001-01-8] | < 5.00 | 10 | 
5 | N#C[C@H]1[C@H](c2ccc(-c3cccc(F)c3)cc2)[C@@H](CO)N1C(=O)NC1CCCC1 [BRD-K69441790-001-01-1] | 5.01 | 57 | 
6 | CS(=O)(=O)N1C[C@@H]2N[C@H](C1)C2c1ccc(-c2ccccc2)cc1 (stereo partly drawn) [BRD-K16971439-019-01-0] | < 5.00 | 5 | 
7 | N#Cc1cccc(-c2ccc3c(c2)[C@H]2[C@H](CCN2S(=O)(=O)c2ccc(F)cc2)[C@@H](CO)N3)c1 [BRD-K73006286-001-01-7] | < 5.00 | 15 | 
8 | CCCNC(=O)N1[C@H](C#N)[C@H](c2ccc(-c3ccccc3F)cc2)[C@H]1CO [BRD-K88402291-001-01-4] |  |  | pIC50 (sheet "2nd round"): < 5.00; Tox_max_inhibition (%) (sheet "2nd round"): 3%
9 | O=C(C[C@H]1CC[C@@H]2[C@H](COC[C@H](O)CN2Cc2ccc(C(F)(F)F)cc2)O1)N1CCc2ccccc2C1 [BRD-K49087010-001-01-1] |  |  | pIC50 (sheet "2nd round"): 5.04; Tox_max_inhibition (%) (sheet "2nd round"): 60%
10 | O=C(Nc1ccccc1F)N1CCCCN2[C@H](C1)[C@H](c1ccc(/C=C/c3ccccc3)cc1)[C@@H]2CO [BRD-K41549807-001-01-5] |  |  | pIC50 (sheet "2nd round"): < 5.00; Tox_max_inhibition (%) (sheet "2nd round"): 10%
11 | O=C(Nc1ccccc1F)N1CCCCN2[C@H](CO)[C@H](c3ccc(/C=C/c4ccccc4)cc3)[C@H]2C1 [BRD-K88581921-001-01-3] | < 5.00 | 3 | 
12 | O=C(Nc1cc(F)ccc1F)N1CCCCN2[C@H](CO)[C@H](c3ccc(C4=CCCCC4)cc3)[C@@H]2C1 [BRD-K26542939-001-01-0] | < 5.00 | 16 | 
13 | O=C(Nc1cccc(F)c1)N1CCCCN2[C@H](CO)[C@@H](c3ccc(C#Cc4cccnc4)cc3)[C@@H]2C1 [BRD-K43947390-001-01-2] | < 5.00 | 5.34 | 
14 | COc1cccc(-c2cccc(-c3nc(C(=O)NCc4ccc(Oc5ccccc5)cc4)cc4c3[C@@H](CCO)N([S+]([O-])C(C)(C)C)C4)c2)c1 (stereo partly drawn) [BRD-K03403405-001-03-3] | < 5.00 | 6 | 
15 | N#C[C@H]1[C@@H](c2ccc(-c3cccnc3)cc2)[C@@H](CO)N1C(=O)Nc1ccc(F)cc1 [BRD-K86354270-001-02-2] | < 5.00 | 14 | 
16 | CC(C)CC#Cc1ccc([C@@H]2[C@H]3CN(C(=O)Nc4ccccc4)CCCCN3[C@H]2CO)cc1 [BRD-K28504277-001-01-8] | 5.28 | 99 | 
17 | C[C@H](CO)N1C[C@H](C)[C@H](CN(C)C(=O)C2CCCCC2)Oc2ncc(C#Cc3cccc(F)c3)cc2C1=O [BRD-K77264696-001-01-2] | < 5.00 | 30 | 
18 | N#Cc1ccc(-c2ccc(C3[C@@H]4CN(C(=O)Nc5ccc6c(c5)OCO6)C[C@H]3N4)cc2)cc1 (stereo partly drawn) [BRD-K65395967-019-01-2] |  |  | Tox_max_inhibition (%) (2nd round, maximal inhibition in dose series): 28%; pIC50 (2nd round, unit inferred): < 5.00
